Results on seven compounds are retold here after paper PMC10820527, “Synthesis, Characterization, and Investigation of Anti-Inflammatory and Cytotoxic Activities of Novel Thiourea Derivatives of Naproxen” (Pharmaceutics, 2023).

For one data set, the system named is healthy male rats. Nature of the data set: Acute oral toxicity assessment (OECD Guidelines No. 423). Format: in vivo, rat. As to conditions: single per os dose 10 mg/kg, sacrifice after 14 days, (absolute organ weight × 100%)/body weight. Here is the method: The acute oral toxicity was assessed in healthy male rats (n = 24, three rats per group, body weight 180–200 g) according to a previously established protocol and the OECD Guidelines No. 423 [37, 38].
Animals were randomly assigned to the following groups: control group—rats that received single dose of 1% DMSO and experimental groups—rats that received compounds 8–14 per os in the single dose of 10 mg/kg dissolved in 1% DMSO. All rats were fasted prior to administration of compounds and during 3 h following the treatment.
Afterwards, rats were kept in single cages and observed once daily during 14 days for clinical signs of toxicity. All behavioral changes and any signs of toxicity were recorded (fur and skin, urination (color), feces consistency, eyes, salivation, any alterations in behavior pattern). Additionally, food and water intake and the body weight were measured daily over 14 days. After accomplishing the monitoring period, rats were sacrificed, and organ weight (liver, kidney, stomach, and heart) was recorded. Relative organ weight was calculated as follows: (absolute organ weight × 100%)/body weight of rat on the day of sacrifice(1)

The test system of another data set is MDA-MB-231. Nature of the data set: MTT cytotoxicity assay, MDA-MB-231. It is filed as cell-based, human. The settings on record: for IC50: mean ± SD. As for the experimental part: Three cancer cell lines (MDA-MB-231, HCT116 and HeLa; i.e., human breast cancer cells, human colorectal cancer cells, and human cervical cancer cells, respectively), and one non-malignant fibroblast MRC-5 cell line (control) were used in this study. The American Type Cell Collection (ATCC, Manassas, VA, USA) provided all examined cell lines. The cells were grown in a complete medium made up of high-glucose DMEM media supplemented with 10% fetal bovine serum and […] L-glutamine (both from Sigma-Aldrich, USA). The cells were cultured in 25 cc flasks (Thermo Fischer Scientific, Waltham, MA, USA) at 37 °C with 100% humidity in a 5% CO2 atmosphere.
The MTT test was used to assess the cytotoxicity of compounds 1–14 [44]. The cytotoxicity of naproxen was also investigated due to its clinical use and structural similarity. Throughout the exponential development period, cells were taken from culture flasks and counted, and 5 × 10^3 cells/well were planted into 96-well culture plates. Following that, the cell lines were treated with varying doses of the investigated chemicals (1–14), naproxen ([…]), and fresh complete media as a control. All evaluated cells were incubated for 24, 48, and 72 h at 37 °C in an environment containing 5% CO2 and 100% humidity. Following incubation, each well’s culture media was taken out, each well received an addition of MTT solution at a final concentration of 0.5 mg/mL, and the cells were left to incubate for an additional four hours. The MTT solution was then withdrawn carefully, and the formazan crystals were dissolved in DMSO. After shaking the plates for 10 min, absorbance at 595 nm was measured using a multiplate reader (Zenyth 3100, Anthos Labtec Instruments, Salzburg, Austria). All concentrations of the tested compounds were performed in three separate wells of the microtiter plates and in three separate experiments. The results were reported as a ratio to the control value, untreated cells. IC50 values were also determined using Microsoft Office Excel 2021. The percentage of viable cells was estimated by dividing the readout absorbance value in the wells containing treated cells by the average absorbance value measured in the wells containing untreated cells, and multiplying the result by 100 [44]. % of the viable cells = ((absorbance of treated cell-absorbance of blank)/(absorbance of untreated cell-absorbance of blank)) × 100(3)
A general note: Tetrazolium dyes change colour on reduction, which living cells bring about.

The target of the next data set is T1, 5-LOX (Homo sapiens, UniProt P09917).
T1 construct: purchased Abcam
T1 sequence (P09917 1-674): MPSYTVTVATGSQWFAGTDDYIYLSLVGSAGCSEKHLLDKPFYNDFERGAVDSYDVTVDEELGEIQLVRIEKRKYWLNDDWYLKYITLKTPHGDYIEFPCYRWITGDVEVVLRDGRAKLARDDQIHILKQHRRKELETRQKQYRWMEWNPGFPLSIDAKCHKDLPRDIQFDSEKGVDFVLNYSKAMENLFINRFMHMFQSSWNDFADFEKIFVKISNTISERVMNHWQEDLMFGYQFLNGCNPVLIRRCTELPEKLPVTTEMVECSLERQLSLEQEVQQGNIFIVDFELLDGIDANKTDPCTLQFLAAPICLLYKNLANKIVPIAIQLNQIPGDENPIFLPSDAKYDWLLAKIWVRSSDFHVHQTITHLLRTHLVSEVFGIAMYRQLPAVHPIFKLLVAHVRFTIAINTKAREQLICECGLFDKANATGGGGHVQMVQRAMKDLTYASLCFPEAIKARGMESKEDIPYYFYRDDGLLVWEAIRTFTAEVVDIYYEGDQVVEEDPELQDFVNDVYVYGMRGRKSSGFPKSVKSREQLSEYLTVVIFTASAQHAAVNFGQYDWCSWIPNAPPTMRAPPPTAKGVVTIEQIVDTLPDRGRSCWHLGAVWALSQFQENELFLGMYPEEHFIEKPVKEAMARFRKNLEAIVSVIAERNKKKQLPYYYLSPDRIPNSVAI
Put plainly: Fluorometric 5-LOX inhibitor screening kit. Format: biochemical. The settings on record: mean of two measurements with standard error, read-out: 5-LOX Percent of Inhibition. Here is the method: The COX-2 and 5-LOX inhibitory potential of the tested compounds was evaluated using a fluorometric COX-2 and 5-LOX inhibitor screening kit (Abcam, Cambridge, UK). These tests are based on determining the presence of prostaglandin G2 (a product of COX enzyme activity) or an intermediate generated by the enzyme 5-LOX, using fluorometric detection. The mentioned experiments were performed according to the manufacturer’s instructions.
For the determination of COX-2 inhibitory potential of tested compounds, stock solutions (5 mM in DMSO) were diluted with the same solvent (test solutions). The test solutions were further diluted with COX assay buffer by mixing 2 µL of the corresponding test solution and 8 µL of COX assay buffer. For the preparation of inhibitory control (IC), celecoxib (2 µL) and COX assay buffer (8 µL) were mixed. Solvent control (SC) was prepared by mixing DMSO (2 µL) and the COX assay buffer (8 µL), enzyme control (EC) was 10 µL of COX assay buffer, while the samples (S) were 10 µL of diluted test solutions. IC, SC, EC, and S were transferred into corresponding wells. For the determination of 5-LOX inhibitory potential of tested compounds, stock solutions of the same concentration (5 mM) were prepared in DMSO. These solutions were further diluted with the same solvent to obtain the test solutions, which were added into the appropriate wells (2 µL). EC, SC, and IC were prepared by adding 2 µL of the assay buffer, DMSO, and zileuton into corresponding wells, respectively.
The fluorescence of the samples was measured kinetically at 25 °C (COX-2: Ex/Em = 535/587 nm, during 10 min; 5-LOX: Ek/Em = 500/536 nm during 20 min) using a Synergi LX multi-mode microplate reader (BioTek, Shoreline, WA, USA).

Where [1] appears, read: Homo sapiens, MDA-MB-231, 24 h, 24 h.
Where [2] appears, read: Homo sapiens, MDA-MB-231, 48 h, 48 h.
Setting [3] is: Homo sapiens, MDA-MB-231, 72 h, 72 h.

Turning to `COc1ccc2cc([C@H](C)C(=O)NC(=S)Nc3ccccc3)ccc2c1` [Compound 8, (S)-2-(6-methoxynaphthalen-2-yl)-N-(phenylcarbamothioyl)propanamide], in the data set on healthy male rats, the “Relative organ weight, Heart” value is listed as 0.31 ± 0.01; the “Relative organ weight, Kidney” value worked out at 0.32 ± 0.02; the “Relative organ weight, Liver” value is recorded as 2.65 ± 0.15; the “Relative organ weight, Stomach” value is on record as 0.51 ± 0.06. For the same compound, the IC50 (usually the concentration that gives 50% inhibition) in the data set on MDA-MB-231 (setting [1]) is over 200 µM. This compound also returned an IC50 in the data set on MDA-MB-231 (setting [2]) of over 200 µM. Moreover, the IC50 with MDA-MB-231 (setting [3]) is over 200 µM. In addition, the inhibition (commonly the drop in the measured response relative to a control, in per cent) at 10 µM at 5-LOX amounted to 34.6 ± 5.84%.
For `COc1ccc2cc([C@H](C)C(=O)NC(=S)Nc3ccc(C)cc3)ccc2c1` [Compound 9, (S)-2-(6-methoxynaphthalen-2-yl)-N-(p-tolylcarbamothioyl)propanamide], in the data set with healthy male rats, the “Relative organ weight, Heart” value turned out to be 0.29 ± 0.03; the “Relative organ weight, Kidney” value stood at 0.29 ± 0.03; the “Relative organ weight, Liver” value came to 3.01 ± 0.27; the “Relative organ weight, Stomach” value was determined as 0.56 ± 0.03. This compound also showed an IC50 with MDA-MB-231 (setting [1]) of over 200 µM. Besides, the IC50 in the data set on MDA-MB-231 (setting [2]) was over 200 µM. It took 112 ± 18.1 µM to reach half-maximal inhibition in the data set with MDA-MB-231 (setting [3]) (IC50). In addition, at 5-LOX, the inhibition at 10 µM came to 12.9 ± 5.47%.
On to `COc1ccc2cc([C@H](C)C(=O)NC(=S)Nc3ccccc3C)ccc2c1` [Compound 10, (S)-2-(6-methoxynaphthalen-2-yl)-N-(o-tolylcarbamothioyl)propanamide], for which, in the data set on healthy male rats, the “Relative organ weight, Heart” value is 0.34 ±0.04; the “Relative organ weight, Kidney” value was 0.31 ± 0.04; the “Relative organ weight, Liver” value stood at 2.67 ± 0.15; the “Relative organ weight, Stomach” value is listed as 0.58 ± 0.04. The “Cytotoxic effect against the MDA-MB-231 cell line (in words)” value with MDA-MB-231 is recorded as “moderate cytotoxic effect”. The same compound came in with an IC50 with MDA-MB-231 (72 h) of 42.2 ± 9.8 µM. The compound further returned an IC50 in the data set with MDA-MB-231 (setting [1]) of 101 ± 11.2 µM. The compound also had an IC50 with MDA-MB-231 (setting [2]) of 70.5 ± 8.3 µM. Also, the IC50 with MDA-MB-231 (setting [3]) worked out at 42 ± 9 µM. Besides, at 5-LOX, the inhibition at 10 µM came out at 27.9 ± 0.57%.
On to `COc1ccc2cc([C@H](C)C(=O)NC(=S)Nc3ccccc3OC)ccc2c1` [Compound 11, (S)-2-(6-methoxynaphthalen-2-yl)-N-((2-methoxyphenyl)carbamothioyl)propanamide], for which, in the data set with healthy male rats, the “Relative organ weight, Heart” value is 0.32 ± 0.02; the “Relative organ weight, Kidney” value came out at 0.33 ± 0.05; the “Relative organ weight, Liver” value is 2.83 ± 0.20; the “Relative organ weight, Stomach” value is recorded as 0.54 ± 0.05. For the same compound, the IC50 in the data set on MDA-MB-231 (setting [1]) was over 200 µM. The same compound displayed an IC50 in the data set with MDA-MB-231 (setting [2]) of over 200 µM. This compound also displayed an IC50 with MDA-MB-231 (setting [3]) of over 200 µM. Moreover, the inhibition at 10 µM at 5-LOX worked out at 31.2 ± 5.45%.
`COc1ccc2cc([C@H](C)C(=O)NC(=S)Nc3ccccc3F)ccc2c1` [Compound 12, (S)-N-((2-fluorophenyl)carbamothioyl)-2-(6-methoxynaphthalen-2-yl)propanamide]: in the data set on healthy male rats, the “Relative organ weight, Heart” value is given as 0.35 ± 0.03; the “Relative organ weight, Kidney” value is on record as 0.32 ± 0.04; the “Relative organ weight, Liver” value is listed as 2.76 ± 0.36; the “Relative organ weight, Stomach” value is listed as 0.59 ± 0.05. The same compound returned an IC50 with MDA-MB-231 (setting [1]) of over 200 µM. The IC50 with MDA-MB-231 (setting [2]) is over 200 µM. In the data set on MDA-MB-231 (setting [3]), this compound had an IC50 of over 200 µM. In addition, at 5-LOX, the inhibition at 10 µM worked out at 29.7 ± 8.56%.
In the case of `COC(=O)[C@H](Cc1ccccc1)NC(=S)NC(=O)[C@@H](C)c1ccc2cc(OC)ccc2c1` [Compound 13, Methyl (((S)-2-(6-methoxynaphthalen-2-yl)propanoyl)carbamothioyl)phenylalaninate], in the data set on healthy male rats, the “Relative organ weight, Heart” value was determined as 0.30 ± 0.04; the “Relative organ weight, Kidney” value was determined as 0.28 ± 0.06; the “Relative organ weight, Liver” value is on record as 3.09 ± 0.27; the “Relative organ weight, Stomach” value is 0.50 ± 0.06. This compound also came in with an IC50 with MDA-MB-231 (setting [1]) of over 200 µM. This compound yielded an IC50 with MDA-MB-231 (setting [2]) of over 200 µM. Also, the IC50 in the data set on MDA-MB-231 (setting [3]) is 99.5 ± 8.2 µM. Moreover, the inhibition at 10 µM on 5-LOX worked out at 19.8 ± 13.2%.
As to `COC(=O)[C@H](Cc1c[nH]c2ccccc12)NC(=S)NC(=O)[C@@H](C)c1ccc2cc(OC)ccc2c1` [Compound 14, Methyl (((S)-2-(6-methoxynaphthalen-2-yl)propanoyl)carbamothioyl)tryptophanate], in the data set with healthy male rats, the “Relative organ weight, Heart” value is reported as 0.31 ± 0.02; the “Relative organ weight, Kidney” value worked out at 0.29 ± 0.04; the “Relative organ weight, Liver” value was 2.03 ± 0.42; the “Relative organ weight, Stomach” value is 0.53 ± 0.04. The same compound displayed an IC50 with MDA-MB-231 (setting [1]) of over 200 µM. Also, the IC50 in the data set on MDA-MB-231 (setting [2]) is over 200 µM. For the same compound, it took 117 ± 15.3 µM to reach half-maximal inhibition with MDA-MB-231 (setting [3]) (IC50). For the same compound, the inhibition at 10 µM at 5-LOX stood at 46.24 ± 0.4%.
